Experimental data: patent publication US6153740A, “cDNA encoding nucleoside transporter” (University of Alberta, priority 1997, dated 2000)

What was measured:
[1] = test system: ei transporters; conditions: Paterson et al, 1991; cited from earlier work
[2] = test system: human erythrocyte es transporter; conditions: cited from earlier work
[3] = molecular target: T1, CNT1 (Rattus norvegicus, UniProt Q62674); experiment: inhibition of CNT1-mediated nucleoside (uridine, AZT, ddC) transport in Xenopus oocytes; type: cell-based; conditions: 1 μM
T1 sequence (Q62674 1-648): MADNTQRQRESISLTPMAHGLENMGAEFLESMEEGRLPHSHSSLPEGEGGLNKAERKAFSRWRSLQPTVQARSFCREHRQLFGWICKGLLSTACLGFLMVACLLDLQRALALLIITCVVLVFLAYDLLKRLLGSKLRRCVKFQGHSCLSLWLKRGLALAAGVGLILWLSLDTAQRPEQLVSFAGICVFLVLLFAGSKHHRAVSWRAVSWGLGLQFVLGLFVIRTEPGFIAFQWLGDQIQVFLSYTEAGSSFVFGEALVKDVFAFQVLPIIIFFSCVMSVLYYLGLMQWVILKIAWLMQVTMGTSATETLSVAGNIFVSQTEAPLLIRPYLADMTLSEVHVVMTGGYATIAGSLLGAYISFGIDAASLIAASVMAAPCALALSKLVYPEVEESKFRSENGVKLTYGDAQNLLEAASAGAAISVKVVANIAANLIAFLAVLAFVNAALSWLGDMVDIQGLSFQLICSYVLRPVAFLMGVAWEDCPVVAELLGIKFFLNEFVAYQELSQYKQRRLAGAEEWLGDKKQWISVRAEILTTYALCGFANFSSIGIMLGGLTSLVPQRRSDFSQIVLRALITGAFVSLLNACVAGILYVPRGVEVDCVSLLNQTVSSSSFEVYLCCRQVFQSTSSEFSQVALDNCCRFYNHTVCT

[4] = molecular target: T2, hCNT1a (Homo sapiens, UniProt O00337); experiment: inhibition of hCNT1a-mediated influx of [3H]uridine in Xenopus oocytes
T2 sequence (O00337 with tags, fused parts or gaps E34G/INS140V): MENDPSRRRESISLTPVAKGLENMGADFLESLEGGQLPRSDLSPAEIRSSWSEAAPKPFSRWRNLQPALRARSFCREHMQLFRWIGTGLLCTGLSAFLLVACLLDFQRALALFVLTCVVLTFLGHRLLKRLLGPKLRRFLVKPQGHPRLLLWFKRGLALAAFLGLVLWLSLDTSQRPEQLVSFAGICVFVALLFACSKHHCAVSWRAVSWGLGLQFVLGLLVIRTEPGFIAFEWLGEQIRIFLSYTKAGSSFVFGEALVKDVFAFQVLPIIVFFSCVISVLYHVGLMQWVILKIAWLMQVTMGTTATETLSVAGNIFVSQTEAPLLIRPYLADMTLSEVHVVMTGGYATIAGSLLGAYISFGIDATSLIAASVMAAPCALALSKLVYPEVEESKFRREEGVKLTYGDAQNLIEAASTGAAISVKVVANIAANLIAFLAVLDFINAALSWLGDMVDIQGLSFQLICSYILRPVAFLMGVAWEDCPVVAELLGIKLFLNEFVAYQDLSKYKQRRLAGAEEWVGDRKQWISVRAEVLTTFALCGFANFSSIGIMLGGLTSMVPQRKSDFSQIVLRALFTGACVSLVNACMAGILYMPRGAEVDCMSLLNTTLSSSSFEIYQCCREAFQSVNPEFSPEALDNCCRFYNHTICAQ
Method: (§3) H2 O, water-injected oocytes. Fluxes were not corrected for the contribution of endogenous transport activity.
(§4) Defolliculated oocytes (Huang et al. 1993) were injected with either 10 nl of water containing 10 ng RNA transcript or 10 nl of water alone. Nucleoside uptake was measured after 3 d and was traced with the respective [^3 H] or [^14 C]nucleoside (Moravek Biochemicals)(5 μC 3H/ml, 1 μC 14C/ml). […] The transport buffer for adenosine influx experiments contained 1 μM deoxycoformycin to inhibit adenosine deaminase activity. Results are presented as means ±SEM for 10-12 individual oocytes. Kinetic constants were determined by non-linear regression analysis (ENZFITTER, Elsevier-Biosoft). Each experiment was performed at least twice on different batches of oocytes.

[5] = test system: kidney; conditions: humans, mice (adenosine also rat); cited from earlier work
[6] = molecular target: T1, CNT1; experiment: uptake/influx of radiolabelled nucleosides in Xenopus oocytes injected with pQQH1 (rat CNT1) cRNA; type: cell-based; conditions: for mediated flux, rCNT1: 10 μM permeant (FIG. 14); for mediated influx, rCNT1 (adenosine/deoxyadenosine comparison): separate experiment, inset FIG. 14A
Method: (§1) Oocytes were injected with water or RNA transcribed in vitro from the nucleoside transporter cDNA (pQQH1). […] For panels c and d, the permeant concentration was 10 μM and competing nonradioactive nucleosides were present at a concentration of 1 mM.
Oocytes injected with water or in vitro transcribed RNA from pQQH1 were incubated with radiolabeled permanent (10 μM) for 30 min (open columns) or 1 h (hatched columns) at 20° C. Each value represents the mean ±S. E. of 8-10 ooctyes.
(§2) Remaining template was removed by digestion with RQ1 DNase. Oocytes were treated with collagenase to remove follicular layers (Huang et al, 1993) and injected with 10 ng of pQQH1 cRNA or water. […] At the end of the incubation, extracellular label was removed by six rapid ice-cold washes in the appropriate transport buffer. Individual oocytes were dissolved in 5% SDS for quantitation of oocyte-associated ^3 H by liquid scintillation counting (LS 6000 IC, Beckman).

[7] = test system: isolated perfused rat kidneys; conditions: secreted at higher concentrations; Trimble and Coulson, 1984; cited from earlier work
[8] = molecular target: T2, hCNT1a; experiment: influx of radiolabelled nucleosides in Xenopus oocytes injected with hCNT1a RNA transcript; conditions: for mediated flux, hCNT1a: 10 μM permeant (FIG. 14); for mediated influx, hCNT1a (adenosine/deoxyadenosine comparison): separate experiment, inset FIG. 14A
Method: Oocytes were injected with either water alone or water containing hCNT1a RNA transcript.
Oocytes were injected with either water alone (.tangle-solidup.) or water containing hCNT1a RNA transcript (.smallcircle.,.circle-solid.).
Adenosine, guanosine and AZT (10 μM) fluxes were compared in the same batch of oocytes injected either with water (open columns) or with RNA transcript for hCNT1a or rCNT1 (hatched and solid columns, respectively).
as §4

[9] = molecular target: T1, CNT1; conditions: cited from earlier work
[10] = molecular target: T1, CNT1; conditions: Yao et al. unpublished; read-out: inhibition constant, recombinant rCNT1; cited from earlier work
[11] = molecular target: T1, CNT1; experiment: inhibition of CNT1-mediated nucleoside (uridine, AZT, ddC) transport in Xenopus oocytes; type: cell-based
Method: as §1, §2

[12] = molecular target: T3, hCNT1b (Homo sapiens, UniProt O00337); experiment: inhibition of hCNT1b-mediated influx of [3H]uridine in Xenopus oocytes; type: cell-based; conditions: uridine 10 μM
T3 sequence (O00337 2-649 V189I/N409S/D521N): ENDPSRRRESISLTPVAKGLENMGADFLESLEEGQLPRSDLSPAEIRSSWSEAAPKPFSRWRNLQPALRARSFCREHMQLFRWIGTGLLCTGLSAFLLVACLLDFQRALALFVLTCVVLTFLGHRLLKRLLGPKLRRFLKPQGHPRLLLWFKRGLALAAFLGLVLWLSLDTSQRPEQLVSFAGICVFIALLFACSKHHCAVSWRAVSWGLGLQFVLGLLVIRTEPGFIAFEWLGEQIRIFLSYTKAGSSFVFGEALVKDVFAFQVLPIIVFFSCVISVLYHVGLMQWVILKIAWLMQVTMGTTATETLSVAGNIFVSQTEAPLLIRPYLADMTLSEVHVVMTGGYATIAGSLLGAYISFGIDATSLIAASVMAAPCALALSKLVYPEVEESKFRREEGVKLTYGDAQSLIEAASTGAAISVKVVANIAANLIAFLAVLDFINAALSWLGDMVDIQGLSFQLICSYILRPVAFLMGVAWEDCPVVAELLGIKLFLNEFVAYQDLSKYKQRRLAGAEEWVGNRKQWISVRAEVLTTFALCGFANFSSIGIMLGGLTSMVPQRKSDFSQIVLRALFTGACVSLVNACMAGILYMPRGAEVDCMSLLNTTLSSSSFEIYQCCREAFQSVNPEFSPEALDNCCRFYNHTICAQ
From the text: H2 O, water-injected oocytes.

[13] = test system: human erythrocytes; conditions: cited from earlier work
[14] = test system: cit transporter; conditions: Terasaki et al, 1993; cited from earlier work
[15] = cited from earlier work
[16] = test system: rat jejunum; experiment: uptake of [3H]AZT by rat jejunum in vivo
[17] = molecular target: T2, hCNT1a; experiment: cell-based
Method: as §3, §4

[18] = substrate: O=c1ccn([C@@H]2O[C@H](CO)[C@@H](O)[C@H]2O)c(=O)[nH]1; experiment: cells, lysate or membranes; conditions: other: rat CNT1, 20° C., pH 7.5
[19] = substrate: Nc1ccn([C@H]2CC[C@@H](CO)O2)c(=O)n1; experiment: uptake/influx of radiolabelled nucleosides in Xenopus oocytes injected with pQQH1 (rat CNT1) cRNA; type: cell-based; conditions: other: rate versus concentration studies, pH 7.5, 20.0 °C
Method: Oocytes were injected with water or RNA transcribed in vitro from the nucleoside transporter cDNA (pQQH1). Each value represents the mean ±S.E. of 8-10 oocytes. […] Apparent Km and Vmax values were determined by non-linear regression analysis (ENZFITTER, Elsevier-Biosoft). […] Panel d: thymidine transport in oocytes injected with pQQH1 cRNA. For panels c and d, the permeant concentration was 10 μM and competing nonradioactive nucleosides were present at a concentration of 1 mM. Fluxes were not corrected for the small (<0.1%) contribution of endogenous activity. […]
Expression of cNT1 in Oocytes-Plasmid pQQH1 DNA was linearized with Xbal and transcribed with T7 polymerase in the presence of the m^7 GpppG cap using the MEGAscript (Ambion) transcription system. […] Nucleoside uptake was measured after 3 days and was traced with the respective ^3 H-labeled nucleoside (Moravek Biochemicals)(20 μC/ml), which was purified by high performance liquid chromatography before use. […] Individual oocytes were dissolved in 5% SDS for quantitation of oocyte-associated ^3 H by liquid scintillation counting (LS 6000 IC, Beckman).
Defolliculated oocytes (Huang et al. 1993) were injected with either 10 nl of water containing 10 ng RNA transcript or 10 nl of water alone. Nucleoside uptake was measured after 3 d and was traced with the respective [^3 H] or [^14 C]nucleoside (Moravek Biochemicals)(5 μC 3H/ml, 1 μC 14C/ml). […]

[20] = Fang et al, 1996, Yao et al. unpublished

## O=[N+]([O-])c1ccc(CSc2ncnc3c2ncn3[C@@H]2O[C@H](CO)[C@@H](O)[C@H]2O)cc1 [NBMPR, 6-[(4-nitrobenzyl)thio]-9-p-D-ribofuranosylpurine]
[1]
  sensitivity of ei systems to inhibition: low (micromolar) sensitivity
[2]; Young and Jarvis, 1983, Paterson et al
  inhibition of equilibrative nucleoside transport in human erythrocytes, concentrations: namomolar concentrations
[3]
  effect on CNT1 transport: unaffected

## Nc1ncnc2c1ncn2[C@@H]1O[C@H](CO)[C@@H](O)[C@H]1O [adenosine]
[4]
  Ki: 50 ± 11 µM
[4]; uridine 10 μM, competitor 1 mM (FIG. 12A), guanosine also in FIG. 13
  inhibition of uridine fluxes, hCNT1a: inhibited
[5]
  net renal handling: net renal reabsorption
[6]; 10 μM
  uridine:adenosine flux ratio, rCNT1: 110
  mediated influx, rCNT1 (adenosine/deoxyadenosine comparison): 0.70±0.0 pmol/oocyte.10 min^-1
[6]
  mediated flux, rCNT1: 0.51±0.05 pmol/oocyte.10 min^-1
[7]
  plasma concentration at which adenosine is reabsorbed: less than 50 μM
[8]; 10 μM
  uridine:adenosine flux ratio, hCNT1a: 75
  mediated influx, hCNT1a (adenosine/deoxyadenosine comparison): 0.60±0.01 pmol/oocyte.10 min^-1
[8]
  mediated flux, hCNT1a: 0.49±0.03 pmol/oocyte.10 min^-1
[9]; [20]
  Vmax relative to uridine, recombinant rCNT1: lower Vmax
  affinity of transport by recombinant rCNT1: same high affinity as uridine
[10]
  Ki: 29 µM
[11]; adenosine, thymidine, cytidine, uridine>>guanosine, inosine
  selective inhibition of uridine and thymidine fluxes (rCNT1): selective inhibition
[12]; competitor 1 mM (FIG. 12B)
  inhibition of uridine fluxes, hCNT1b: inhibited

## Cc1cn([C@H]2C[C@H](N=[N+]=[N-])[C@@H](CO)O2)c(=O)[nH]c1=O [AZT, 3'-azido-3'-deoxythymidine]
[4]; uridine 10 μM, analog 5 mM (FIG. 12A)
  inhibition of hCNT1a-mediated influx of uridine: inhibited
[5]
  net renal handling: net renal secretion
[6]; 10 μM permeant
  CNT1-mediated uptake/transport: large increases
[6]
  mediated flux, rCNT1: 4.10±0.34 pmol/oocyte.10 min^-1
[6]; 10 μM, 10-min flux
  Na+ dependence of initial rate of expressed uptake: 77%
[6]; rat CNT1, permeant = labelled substance
  Vmax: 28 pmol/oocyte.min^-1
[6]; rate versus concentration studies, rat CNT1, read-out: apparent Km
  Km: 490 µM
[13]
  rate of entry into human erythrocytes relative to those of thymidine and cytidine: < 2%
[14]
  cit-mediated uridine transport, inhibition: inhibited
[15]; Good et al. 1990, Griffiths et al. 1992
  excretion in the urine: excreted in the urine either unchanged or as the glucuronide conjugate
[15]; oral
  absorption by the gastrointestinal systems of humans and rats: absorbed efficiently
[8]
  transport by hCNT1: transport
  mediated flux, hCNT1a: 4.79±0.41 pmol/oocyte.10 min^-1
[9]; Yao et al. in press
  transport by recombinant rCNT1 in oocytes: transports AZT
[16]
  uptake of [3H]AZT by rat jejunum in vivo: Na^+ -dependent
[2]
  transport by equilibrative nucleoside transporters: not transported
[11]
  IC50: < 1000 µM
[12]; analog 5 mM (FIG. 12B)
  inhibition of hCNT1b-mediated influx of uridine: inhibited

## Nc1ncnc2c1ncn2[C@H]1C[C@H](O)[C@@H](CO)O1 [deoxyadenosine, 2'-deoxyadenosine]
[17]
  Ki: 46 ± 14 µM
[5]
  net renal handling: net renal secretion
[6]; 10 μM
  mediated influx, rCNT1 (adenosine/deoxyadenosine comparison): 0.11±0.02 pmol/oocyte.10 min^-1
[8]
  permeant quality, hCNT1: poor hCNT1 permeants
[8]; 10 μM
  mediated influx, hCNT1a (adenosine/deoxyadenosine comparison): 0.14±0.02 pmol/oocyte.10 min^-1

B1: CNT1 (Rattus norvegicus) (protein)
chain: T1 sequence (Q62674 1-648)
notes: identified as pQQH1, has an open reading frame encoding a 648-amino acid protein; expressed in transfected cells; host or cells: Xenopus oocytes injected with pQQH1 cRNA
[18]
  Km: 37 µM
[19]
  Km: 510 µM
